Source: patent US20120078527A1, “KIT AND METHOD FOR PREDICTING SENSITIVITY OF GASTRIC CANCER PATIENT TO ANTI-CANCER AGENT” (SAMSUNG ELECTRONICS CO., LTD., priority 2010, published 2012)

Test system: advanced (terminal) gastric cancer patients
Test: Change in tumor size after cisplatin-based chemotherapy in gastric cancer patients
Assay type: in vivo, human
Details: population of 151 advanced (terminal) gastric cancer patients; cisplatin-based chemotherapy per NCCN guidelines after palliative surgical resection; judged by changes in tumor size
Description: A population of 151 advanced (terminal) gastric cancer patients who were treated with cisplatin-based chemotherapy (in Samsung Medical Center, Seoul, Korea) after palliative surgical resection were selected to test for sensitivity to the anti-cancer agent. That is, the anti-cancer agent (cisplatin) was administered to the patients according to National Comprehensive Cancer Network (NCCN) guidelines, and changes in tumor size after the administration of the anti-cancer agent were measured to determine whether the anti-cancer therapy was effective. Then, the patients were grouped into two groups: one group of 103 patients for which the anti-cancer therapy was effective (responders), and the other group of 48 patients for which the anti-cancer therapy was not effective (nonresponders). In addition, to identify SNPs associated with response or nonresponse to the anti-cancer agent, DNA of each of the patients was extracted from gastric tumor tissue removed from the patient using QIAamp DNA Mini and blood Mini kits.

Which results are given for `N.N.[Cl][Pt][Cl]` [cisplatin]?
patients for which the anti-cancer therapy was effective (responders): 103 patients; patients for which the anti-cancer therapy was not effective (nonresponders): 48 patients
